Where two headings read alike, the source gives them in different places.
Columns and labels:
LC3-II = assay: Ex vivo pressure-loaded retinas, Western blot of LC3-II; assay type: cell-based, rat; details: 10 mM 3-MA, 1 μM ent-AlloP, 75 mmHg
Protocol: (§1) Rat ex vivo Eyecup Preparation—Rat ex vivo eyecups were prepared from 28-32 day old male Sprague-Dawley rats (Charles River Laboratories International Inc., Wilmington, MA). The anterior half of the enucleated eyes was carefully removed to make eyecup preparations. Eyecups were placed at the bottom of a 100 ml glass beaker filled with aCSF (artificial cerebrospinal fluid) containing (in mM): 124 NaCl, 5 KCl, 2 MgSO4, 2 CaCl2, 1.25 NaH2PO4, 22 NaHCO3, and 10 glucose, and incubated at 30° C. for 24 hours using a closed pressure-loading system (FIG. 1C). pH was maintained at 7.35 to 7.40. In the closed-pressure system, a glass beaker with the eyecup was placed at the bottom of an acrylic pressure chamber (2,000 ml volume). A 95% O2-5% CO2 gas mixture was delivered through disposable plastic tubing with an infusion valve and a control dial on the lid of the pressure chamber and an air filter (Cat #SLGP033RS, Merck Millipore, Billerica, MA). The plastic tubing delivering the gas terminated 1 cm above the bottom of the beaker.
(§2) Acutely prepared eyecups were incubated in gassed aCSF for at least 1 h at 30° C. before pressure loading. In some experiments, AlloP (1 μM), ent-AlloP (1 μM), and 3-MA (10 mM) were dissolved in aCSF at the time of experiment and administered by bath perfusion. Eyecup preparations were treated with these drugs for 1 h at 30° C. before pressure loading. For pressure loading, the 95% O2-5% CO2 gas mixture was infused until the pressure reading given by a manometer reached the appropriate level. The pressure was then locked by adjusting the control dial of the effusion valve, and monitored continuously for 24 h at 30° C.
(§3) Western Blot Analysis—At the end of each experiment, the posterior segments of the eye were placed on a flat cutting surface and immersed in ice-cold aCSF. With a surgical blade, the retina was carefully and gently detached from the sclera with a fine forceps. The isolated retinas were frozen at −80° C. Retinas were then homogenized in lysis buffer solution (CelLytic MT; Sigma-Aldrich, Inc.) with protease inhibitor cocktail (Sigma-Aldrich, Inc.), prepared according to the manufacturer's instructions. The tissue extracts were ultrasonicated and clarified by centrifugation at 12,000 g for 20 minutes at 4° C. The protein concentrations in supernatants were assayed (Quant-iT assay kit; Invitrogen Corp., Carlsbad, CA). Twenty micrograms of retinal extract were subjected to SDS polyacrylamide gel electrophoretic analysis. The proteins were then transferred to a PVDF. Immunoblots by polyclonal rabbit anti-LC3B antibody (MBL Life Science) or anti-SQSTMl/p62 mouse monoclonal antibody (Abcam) were visualized using WesternBreeze Chemiluminescent Immunodetection system (Invitrogen) with the exposure time to autoradiograph film (MXJB Plus; Kodak, Rochester, NY) adjusted to avoid over- or undersaturation. Precision Plus Protein™ Western Standards (Bio-Rad, Hercules, CA) followed by Precision Protein™ strep Tactin-AP conjugate (Bio-Rad) was used for a molecular marker of LC3. MagicMark™ XP Western Protein Standard (Invitrogen, Carlsbad, CA) was used for a molecular marker of p62. Immunoblot data are normalized to β-actin levels in the same sample.
(§4) The density of Western blot bands was quantified using Image-Pro Plus software. Quantification was adjusted to protein expression at 10 mmHg after normalization to the β-actin band at each pressure, and the relative gray-scale value was calculated by densitometric analysis of the obtained bands. At least four independent experiments were performed for each condition, and the results are presented as relative units numerically. Differences in expression levels were evaluated using Wilcoxon Rank-Sum Test, Tukey's or Dunnett's multiple comparison test. Sample numbers were four to five per each experimental condition.

p62 = assay: Ex vivo pressure-loaded retinas, Western blot of p62; assay type: cell-based, rat; details: 10 mM 3-MA, 1 μM ent-AlloP, 75 mmHg
Protocol: as §1, §2
as §3, with “MagicMark™ XP Western Protein Standard (Invitrogen, Carlsbad, CA) was used for a molecular marker of p62. Immunoblot data are normalized to β-actin levels in the same sample.” left out
as §4, with “At least four independent experiments were performed for each condition, and the results are presented as relative units numerically.” left out, “Sample numbers were four to five per each experimental condition.” left out

[1] = system: pressure-loaded ex vivo rat retinas; assay type: cell-based; details: for retinal morphology with 3-MA alone: 10 mM
Protocol: as §1, §2
Data analysis of morphometry—The middle portion of the retina was examined, greater than 1,200 μm away from the center of the optic disc along the inner limiting membrane (ILM). The nerve fiber layer thickness (NFLT) was measured by light microscopy along 5 lines perpendicular to the pigment epithelium at a distance of 15 μm from each other around 1,200 μm away from the center of the optic disc. The average NFLT was determined in 9 different light micrographs taken from 5 eyecup samples in each condition, divided by total retinal thickness, and mean±standard deviation (%) was analyzed and compared with control.
The density of degenerated cells characterized by nuclear chromatin clumping or necrosis in the GCL was determined by counting 9 fields of 500 μm length in light micrographs taken from the block of the middle retinal part 950 to 1450 μm away from the center of the optic disc.
The severity of neuronal damage was assessed by light microscopy using a neuronal damage score (NDS). The NDS was determined in 9 different light micrographs taken from 5 eyecup samples in each condition. The NDS rates neuronal damage in the inner nuclear layer (INL) and the inner plexiform layer (IPL) on a 0-4 scale with 0 signifying no neuronal damage and 4 indicating very severe damage. Criteria used in establishing the degree of neuronal damage included the extent of cytoplasmic swelling in the IPL and the number of neurons in the INL showing signs of severe cytoplasmic swelling and coarse clumping of nuclear chromatin. The highest NDS rating (4) is given when the IPL discloses apparent spongiform appearance due to dendritic swelling and when most cell bodies in the INL show severe cytoplasmic swelling and coarse clumping of nuclear chromatin. If the damage is of a lesser degree, a rating of 3 is given. NDS 2 is assigned when cell bodies in the INL are sporadically swollen. […] Fine dendritic swelling in a limited area of the IPL without damage in the INL is described by NDS 1.
NFLT, density of degenerated cells in the GCL, and NDS were determined as the measurement of 10 different areas from three eyes per experimental condition. These morphometrical parameters were assessed by three raters, who remained unaware of the experimental condition. […]

Compound | effect of 3-MA on upregulation of LC3-II levels induced by ent-AlloP (LC3-II) | effect of 3-MA on the decrease of p62 levels induced by ent-AlloP (p62) | effect of 3-MA on neuroprotection by AlloP ([1]; 10 mM 3-MA + 1 μM AlloP, 75 mmHg) | effect of 3-MA on the effects of ent-AlloP ([1]; 10 mM 3-MA + 1 μM ent-AlloP, 75 mmHg) | retinal morphology with 3-MA alone ([1]; 10 mmHg) | retinal morphology with 3-MA alone ([1]; 75 mmHg) | effect of picrotoxin on the neuroprotective effect of AlloP ([1]; 1 μM picrotoxin + 1 μM AlloP, hyperbaric conditions (75 mmHg)) | effect of picrotoxin on the effects of ent-AlloP ([1]; 1 μM picrotoxin + 1 μM ent-AlloP, 75 mmHg)
Cn1cnc(N)c2ncnc1-2 [3-MA, 3-methyladenine] | dampened | reversed | did not alter neuroprotection by AlloP | dampened the effects of ent-AlloP | neurodegenerative | neurodegenerative | – | –
picrotoxin | – | – | – | – | – | – | overcame the neuroprotective effect of AlloP | did not alter the effects of ent-AlloP

— patent US20240041898A9, “NEUROSTEROIDS AND ENANTIOMERS THEREOF FOR THE PREVENTION AND TREATMENT OF NEURODEGENERATIVE CONDITIONS” (priority 2019, published 2024)
